Reference: patent publication US6716812B1, “Modulation of sperm function” (priority 1998, dated 2004)
Positions of bridges follow the written chain, without caps; N, C: chain ends. Non-standard residues stand in square brackets, D forms with d. Residues, ends and D or L forms follow the SMILES beside them. No end group written: not given here. pGlu = O=C1CC[C@@H](C(=O)O)N1

Columns and labels:
[1] = test system: uncapacitated mouse sperm; test: Chlortetracycline (CTC) fluorescence analysis of capacitation in uncapacitated sperm; assay type: cell-based; details: 40 min incubation
Procedure: The contents of cauda epididymides (3-4 cauda per ml of medium) from mature TO male mice (Harlan Olac, Bicester, U.K.) were released into 2 ml modified Tyrode's medium (Fraser, 1993) in 30 mm sterile culture dishes and allowed to disperse for 5 min. For studies on uncapacitated sperm, suspensions were then filtered through short columns of Sephadex G-25 (medium grade; Pharmacia, Uppsala, Sweden) to remove non-motile cells. Filtered suspensions were aliquotted out to different treatment groups, treated with nothing (control), calcitonin or FPP (as a positive control) and then incubated for 40 min. Salmon calcitonin was used at a final concentration of 5 ng/ml, human calcitonin was used at 200 ng/ml and 20 ng/ml and FPP was used at 100 nM. These short-term incubations were carried out in 0.5 ml plastic microcentrifuge tubes at 37° C. in an atmosphere of 5% CO2, 5% O2, 90% N2. […] Three replicate experiments using uncapacitated sperm were carried out using salmon calcitonin and the higher concentration of human calcitonin (n=3); for the lower concentration of the human hormone, n=2.
(§1) Chlortetracycline (CTC) fluorescence analysis was carried out as described by Green et al. (1994). Assessments were made on an Olympus BX40 microscope equipped with phase contrast and BX-FLA epifluorescence optics using the wide blue-violet excitation cube (U-MWBV). The excitation beam passed through a 400-440 nm band pass filter and CTC fluorescence was observed through a DM 455 dichroic mirror. In each sample, at least 100 sperm were classified as expressing one of three patterns: F, with fluorescence over the entire head, a pattern characteristic of uncapacitated (non-fertilizing), acrosome-intact sperm; B, with a fluorescence-free band in the postacrosomal region, a pattern characteristic of capacitated (potentially fertilizing), acrosome-intact sperm; AR, with dull or absent fluorescence over the whole head, a pattern characteristic of acrosome-reacted (non-fertilizing) sperm.

[2] = test system: capacitated mouse sperm; test: Spontaneous acrosome loss in capacitated suspensions (CTC); assay type: cell-based; details: for incidence of spontaneously acrosome-reacted sperm vs untreated control: 40 min after 90 min capacitation
Procedure: as §1
Sperm suspensions were prepared as described earlier for CTC analysis and incubated for 90 min to allow capacitation. Suspensions were then filtered to remove non-motile cells and a sample was stained with CTC (Con-90). The remaining suspension was aliquotted out to different treatment groups and treated for 40 min with nothing (Con-130), 100 nM FPP (positive control), 100 nM FPP+100 ng/ml pertussis toxin (F+PT, negative control), 5 ng/ml salmon calcitonin (CT) and 5 ng/ml salmon calcitonin+100 ng/ml pertussis toxin (CT+PT); (n=3).

[3] = test system: human sperm; details: some (higher) concentrations; Gnessi et al, 1984; cited from earlier work
[4] = test system: uncapacitated mouse sperm suspensions; test: In vitro fertilization analysis; assay type: cell-based; details: 40 min preincubation, 65 min coincubation
Procedure: The contents of the cauda epididymides from 2 mature TO male mice were released into 2 ml modified Tyrode's medium in 30 mm sterile culture dishes and allowed to disperse for 5 min. Suspensions were then divided into 3 treatment groups, each in a 30 mm sterile dishes, and treated with nothing (Control) or with calcitonin. As in the CTC experiments, salmon calcitonin was used at a final concentration of 5 ng/ml and human calcitonin at 200 ng/ml. Each suspension was overlaid with autoclaved liquid paraffin and incubated for 40 min at 37° C. in an atmosphere of 5% O2, 5% CO2, 90% N2.
Mature female TO mice were induced to superovulate by intraperitoneal injections of 7.5 IU equine chorionic gonadotrophin and approximately 50 hr later with 5 IU human chorionic gonadotrophin (hCG). Approximately 15 hr post-hCG, oviducts were removed and cumulus masses containing the oocytes were released into medium covered with liquid paraffin. Preincubated sperm suspensions were diluted ^˜10 fold into medium of the same composition used for initial incubation (i.e., without or with calcitonin); 400 μl of diluted suspension were transferred to culture dishes, covered with liquid paraffin and oocytes were added. […]
Oocytes were stained with 0.75% aceto orcein, mounted and assessed (Fraser, 1993). […]

[5] = test system: mouse sperm; test: Subjective motility evaluation; assay type: cell-based; details: judged subjectively; concentrations as in the CTC experiments
From the text: In all experiments, a drop of each suspension was examined briefly for subjective motility evaluation.

[6] = test system: human sperm; details: Green et al., 1996; cited from earlier work
[7] = pertussis toxin at 100 ng/ml, 40 min

## salmon calcitonin
[1]; 5 ng/ml
  proportion of F pattern cells (uncapacitated, non-fertilizing) vs untreated: significantly lower proportion
[1]; 5 ng/ml, P<0.01, n=3
  proportion of B pattern cells (capacitated, potentially fertilizing) vs untreated: significantly higher proportion
[2]; 5 ng/ml, P<0.01, n=3
  incidence of spontaneously acrosome-reacted sperm vs untreated control: significantly lower incidence
[3]
  effect on human sperm motility: negative effect
[4]; 5 ng/ml, P<0.025, n=4
  fertilized oocytes obtained vs untreated control sperm: significantly more fertilized oocytes

## pertussis toxin
[2]; [7]
  effect on the response (inhibition of spontaneous acrosome loss) to 5 ng/ml salmon calcitonin: abolished the responses
  effect on the response (inhibition of spontaneous acrosome loss) to 100 nM FPP: abolished the responses

## calcitonin
[5]
  sperm motility vs untreated controls: more active motility

## NC(=O)[C@@H]1CCCN1C(=O)[C@H](CCC(=O)O)NC(=O)[C@@H]1CCC(=O)N1 [FPP, pyroglutamylglutamylprolineamide] ([pGlu]-Glu-Pro-NH2)
[1]; 100 nM
  proportion of F pattern cells (uncapacitated, non-fertilizing) vs untreated: significantly lower proportion
[1]; 100 nM, P<0.01, positive control
  proportion of B pattern cells (capacitated, potentially fertilizing) vs untreated: significantly higher proportion
[5]
  sperm motility vs untreated controls: more active motility
[2]; 100 nM, P<0.01, n=3, positive control
  incidence of spontaneously acrosome-reacted sperm vs untreated control: significantly lower incidence
[6]
  human sperm fertilizing ability: stimulate human sperm fertilizing ability

## human calcitonin: 32-amino acid hypocalcemic hormone of human origin (CGNLSTCMLGTYTQDFNKFHTFPQTAIGVGAP-NH2; disulfide 1-7; ends not checked; UniProt P01258 85-116, looked up)
[1]; 20 ng/ml
  proportion of F pattern cells (uncapacitated, non-fertilizing) vs untreated: significantly lower proportion
[1]; 20 ng/ml, P<0.025, n=2
  proportion of B pattern cells (capacitated, potentially fertilizing) vs untreated: significantly higher proportion
[1]; 200 ng/ml
  proportion of F pattern cells (uncapacitated, non-fertilizing) vs untreated: significantly lower proportion
[1]; 200 ng/ml, P<0.01, n=3
  proportion of B pattern cells (capacitated, potentially fertilizing) vs untreated: significantly higher proportion
[3]
  effect on human sperm motility: not
[4]; 200 ng/ml, P<0.05, n=4
  fertilized oocytes obtained vs untreated control sperm: significantly more fertilized oocytes
